Reference: ChEMBL document CHEMBL5505977, “Discovery of novel pyrrolo[2,3-d]pyrimidines as potent menin-mixed lineage leukemia interaction inhibitors” (Eur J Med Chem, 2024)
Active and inactive are the calls of the source. No cut-off for these calls is given here.

What was measured:
Menin = target: T1, Menin (Homo sapiens, UniProt O00255); assay: Binding affinity to menin (unknown origin) incubated for 1 hr by fluorescence polarization assay
T1 sequence (O00255 whole entry): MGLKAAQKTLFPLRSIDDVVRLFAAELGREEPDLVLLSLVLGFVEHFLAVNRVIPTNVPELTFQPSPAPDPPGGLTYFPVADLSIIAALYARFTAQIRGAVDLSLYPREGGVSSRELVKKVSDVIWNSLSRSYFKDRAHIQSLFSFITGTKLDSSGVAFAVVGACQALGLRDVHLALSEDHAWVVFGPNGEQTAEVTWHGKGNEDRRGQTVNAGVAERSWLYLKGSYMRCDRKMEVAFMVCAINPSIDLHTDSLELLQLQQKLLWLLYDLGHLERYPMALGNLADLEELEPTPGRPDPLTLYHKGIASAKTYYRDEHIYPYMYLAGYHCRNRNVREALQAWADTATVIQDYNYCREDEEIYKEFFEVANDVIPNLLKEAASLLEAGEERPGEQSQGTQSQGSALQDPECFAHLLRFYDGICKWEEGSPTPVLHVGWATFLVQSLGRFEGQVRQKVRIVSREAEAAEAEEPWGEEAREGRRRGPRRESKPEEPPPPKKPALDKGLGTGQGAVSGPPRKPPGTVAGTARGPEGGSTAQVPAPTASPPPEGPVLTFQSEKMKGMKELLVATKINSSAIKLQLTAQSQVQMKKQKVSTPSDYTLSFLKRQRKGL

HL-60 = assay: Antiproliferative activity against human HL-60 cells incubated for 72 hrs by MTT assay; assay type: functional, cell-based; conditions: HL-60, 72 h
MV4-11 [1] = assay: cells; conditions: Homo sapiens, MV4-11, 72 h
Description: Antiproliferative activity against human MV4-11 cells incubated for 72 hrs by MTT assay

SU-DHL-6 = assay: Antiproliferative activity against human SU-DHL-6 cells incubated for 72 hrs by MTT assay; assay type: functional, cell-based; conditions: SU-DHL-6, 72 h
Pfeiffer = assay: Antiproliferative activity against human Pfeiffer cells incubated for 72 hrs by MTT assay; assay type: functional, cell-based
Raji = assay: Antiproliferative activity against human Raji cells incubated for 72 hrs by MTT assay; assay type: functional, cell-based
Ramos = assay: Antiproliferative activity against human Ramos cells incubated for 72 hrs by MTT assay; assay type: functional, cell-based
HCT-116 = assay: Antiproliferative activity against human HCT-116 cells incubated for 72 hrs by MTT assay; assay type: functional, cell-based; conditions: HCT-116, 72 h
MCF7 = assay: Antiproliferative activity against human MCF7 cells incubated for 72 hrs by MTT assay; assay type: functional, cell-based; conditions: MCF7, 72 h
[2] = Antiproliferative activity against human NCM460 cells incubated for 72 hrs by MTT assay; assay type: toxicity, cell-based
MV4-11 [3] = assay: Induction of apoptosis in human MV4-11 cells assessed as viable cells at 1 uM incubated for 24 hrs by FITC Annexin-V/PI staining based flow cytometry analysis (reference value: 94.27%); assay type: functional; conditions: read-out: Activity
MV4-11 [4] = assay: Induction of apoptosis in human MV4-11 cells assessed as early apoptotic cells at 1 uM incubated for 24 hrs by FITC Annexin-V/PI staining based flow cytometry analysis (reference value: 2.68%); assay type: functional
MV4-11 [5] = assay: Induction of apoptosis in human MV4-11 cells assessed as late apoptotic cells at 1 uM incubated for 24 hrs by FITC Annexin-V/PI staining based flow cytometry analysis (reference value: 3%); assay type: functional
MV4-11 [6] = assay: Induction of apoptosis in human MV4-11 cells assessed as necrotic cells at 1 uM incubated for 24 hrs by FITC Annexin-V/PI staining based flow cytometry analysis (reference value: 0.04%); assay type: functional
MV4-11 [7] = assay: Induction of apoptosis in human MV4-11 cells assessed as viable cells at 10 uM incubated for 24 hrs by FITC Annexin-V/PI staining based flow cytometry analysis (reference value: 94.27%); assay type: functional; conditions: read-out: Activity
MV4-11 [8] = assay: Induction of apoptosis in human MV4-11 cells assessed as early apoptotic cells at 10 uM incubated for 24 hrs by FITC Annexin-V/PI staining based flow cytometry analysis (reference value: 2.68%); assay type: functional
MV4-11 [9] = assay: Induction of apoptosis in human MV4-11 cells assessed as late apoptotic cells at 10 uM incubated for 24 hrs by FITC Annexin-V/PI staining based flow cytometry analysis (reference value: 3%); assay type: functional
MV4-11 [10] = assay: Induction of apoptosis in human MV4-11 cells assessed as necrotic cells at 10 uM incubated for 24 hrs by FITC Annexin-V/PI staining based flow cytometry analysis (reference value: 0.04%); assay type: functional
MV4-11 [11] = assay: Induction of apoptosis in human MV4-11 cells assessed as viable cells at 0.1 uM incubated for 24 hrs by FITC Annexin-V/PI staining based flow cytometry analysis (reference value: 94.27%); assay type: functional; conditions: read-out: Activity
MV4-11 [12] = assay: Induction of apoptosis in human MV4-11 cells assessed as early apoptotic cells at 0.1 uM incubated for 24 hrs by FITC Annexin-V/PI staining based flow cytometry analysis (reference value: 2.68%); assay type: functional
MV4-11 [13] = assay: Induction of apoptosis in human MV4-11 cells assessed as late apoptotic cells at 0.1 uM incubated for 24 hrs by FITC Annexin-V/PI staining based flow cytometry analysis (reference value: 3%); assay type: functional
MV4-11 [14] = assay: Induction of apoptosis in human MV4-11 cells assessed as necrotic cells at 0.1 uM incubated for 24 hrs by FITC Annexin-V/PI staining based flow cytometry analysis (reference value: 0.04%); assay type: functional
MV4-11 [15] = assay: Induction of cell cycle arrest in human MV4-11 cells assessed as accumulation of cells at G0/G1 phase incubated for 24 hrs by PI/RNase staining based flow cytometry analysis; assay type: functional; conditions: dose 0.1-10 µM
MV4-11 [16] = assay: Effect on cell differentiation in human MV4-11 cells assessed as decrease in HOXA9 expression level incubated for 48 hrs by qPCR analysis; assay type: functional, cell-based
MV4-11 [17] = assay: Effect on cell differentiation in human MV4-11 cells assessed as decrease in HOXA9 expression level at 0.5 uM by qPCR analysis; assay type: functional, cell-based; conditions: time 24-48 hrs, TDE = time-dependent effect
MV4-11 [18] = assay: Effect on cell differentiation in human MV4-11 cells assessed as decrease in MEIS1 expression level incubated for 48 hrs by qPCR analysis; assay type: functional, cell-based
MV4-11 [19] = assay: Effect on cell differentiation in human MV4-11 cells assessed as decrease in MEIS1 expression level at 0.5 uM by qPCR analysis; assay type: functional, cell-based; conditions: time 24-48 hrs, TDE = time-dependent effect
MV4-11 [20] = assay: Effect on cell differentiation in human MV4-11 cells assessed as assessed as increase in CD11b protein expression at M2-1 at 1 uM incubated for 7 days by flow cytometry analysis (reference value: 86.12%); assay type: functional; conditions: time 7 day
MV4-11 [21] = assay: Effect on cell differentiation in human MV4-11 cells assessed as assessed as increase in CD11b protein expression at M2-2 at 1 uM incubated for 7 days by flow cytometry analysis (reference value: 13.86%); assay type: functional; conditions: time 7 day
MV4-11 [22] = assay: Effect on cell differentiation in human MV4-11 cells assessed as assessed as increase in CD11b protein expression at M2-1 at 10 uM incubated for 7 days by flow cytometry analysis (reference value: 86.12%); assay type: functional; conditions: time 7 day
MV4-11 [23] = assay: Effect on cell differentiation in human MV4-11 cells assessed as assessed as increase in CD11b protein expression at M2-2 at 10 uM incubated for 7 days by flow cytometry analysis (reference value: 13.86%); assay type: functional; conditions: time 7 day
MV4-11 [24] = assay: Effect on cell differentiation in human MV4-11 cells assessed as assessed as increase in CD11b protein expression at M2-1 at 0.1 uM incubated for 7 days by flow cytometry analysis (reference value: 86.12%); assay type: functional; conditions: time 7 day
MV4-11 [25] = assay: Effect on cell differentiation in human MV4-11 cells assessed as assessed as increase in CD11b protein expression at M2-2 at 0.1 uM incubated for 7 days by flow cytometry analysis (reference value: 13.86%); assay type: functional; conditions: time 7 day
MV4-11 [26] = assay: Induction of cell cycle arrest in human MV4-11 cells assessed as accumulation of cells at G0/G1 phase at 10 uM incubated for 24 hrs by PI/RNase staining based flow cytometry analysis; assay type: functional
MV4-11 [27] = assay: Effect on cell differentiation in human MV4-11 cells assessed as decrease in HOXA9 expression level at 5 uM by qPCR analysis; assay type: functional, cell-based; conditions: time 24-48 hrs, TDE = time-dependent effect
MV4-11 [28] = assay: Effect on cell differentiation in human MV4-11 cells assessed as decrease in MEIS1 expression level at 5 uM by qPCR analysis; assay type: functional, cell-based; conditions: time 24-48 hrs, TDE = time-dependent effect
[29] = target: T2, Menin/Histone-lysine N-methyltransferase MLL (Homo sapiens, UniProt O00255); assay: Inhibition of human menin-MLL (unknown origin) protein-protein interaction incubated for 0.5 to 4 hrs by TR-FRET assay
T2 sequence (Q03164 1-2718 partner limits assumed, one chain of several): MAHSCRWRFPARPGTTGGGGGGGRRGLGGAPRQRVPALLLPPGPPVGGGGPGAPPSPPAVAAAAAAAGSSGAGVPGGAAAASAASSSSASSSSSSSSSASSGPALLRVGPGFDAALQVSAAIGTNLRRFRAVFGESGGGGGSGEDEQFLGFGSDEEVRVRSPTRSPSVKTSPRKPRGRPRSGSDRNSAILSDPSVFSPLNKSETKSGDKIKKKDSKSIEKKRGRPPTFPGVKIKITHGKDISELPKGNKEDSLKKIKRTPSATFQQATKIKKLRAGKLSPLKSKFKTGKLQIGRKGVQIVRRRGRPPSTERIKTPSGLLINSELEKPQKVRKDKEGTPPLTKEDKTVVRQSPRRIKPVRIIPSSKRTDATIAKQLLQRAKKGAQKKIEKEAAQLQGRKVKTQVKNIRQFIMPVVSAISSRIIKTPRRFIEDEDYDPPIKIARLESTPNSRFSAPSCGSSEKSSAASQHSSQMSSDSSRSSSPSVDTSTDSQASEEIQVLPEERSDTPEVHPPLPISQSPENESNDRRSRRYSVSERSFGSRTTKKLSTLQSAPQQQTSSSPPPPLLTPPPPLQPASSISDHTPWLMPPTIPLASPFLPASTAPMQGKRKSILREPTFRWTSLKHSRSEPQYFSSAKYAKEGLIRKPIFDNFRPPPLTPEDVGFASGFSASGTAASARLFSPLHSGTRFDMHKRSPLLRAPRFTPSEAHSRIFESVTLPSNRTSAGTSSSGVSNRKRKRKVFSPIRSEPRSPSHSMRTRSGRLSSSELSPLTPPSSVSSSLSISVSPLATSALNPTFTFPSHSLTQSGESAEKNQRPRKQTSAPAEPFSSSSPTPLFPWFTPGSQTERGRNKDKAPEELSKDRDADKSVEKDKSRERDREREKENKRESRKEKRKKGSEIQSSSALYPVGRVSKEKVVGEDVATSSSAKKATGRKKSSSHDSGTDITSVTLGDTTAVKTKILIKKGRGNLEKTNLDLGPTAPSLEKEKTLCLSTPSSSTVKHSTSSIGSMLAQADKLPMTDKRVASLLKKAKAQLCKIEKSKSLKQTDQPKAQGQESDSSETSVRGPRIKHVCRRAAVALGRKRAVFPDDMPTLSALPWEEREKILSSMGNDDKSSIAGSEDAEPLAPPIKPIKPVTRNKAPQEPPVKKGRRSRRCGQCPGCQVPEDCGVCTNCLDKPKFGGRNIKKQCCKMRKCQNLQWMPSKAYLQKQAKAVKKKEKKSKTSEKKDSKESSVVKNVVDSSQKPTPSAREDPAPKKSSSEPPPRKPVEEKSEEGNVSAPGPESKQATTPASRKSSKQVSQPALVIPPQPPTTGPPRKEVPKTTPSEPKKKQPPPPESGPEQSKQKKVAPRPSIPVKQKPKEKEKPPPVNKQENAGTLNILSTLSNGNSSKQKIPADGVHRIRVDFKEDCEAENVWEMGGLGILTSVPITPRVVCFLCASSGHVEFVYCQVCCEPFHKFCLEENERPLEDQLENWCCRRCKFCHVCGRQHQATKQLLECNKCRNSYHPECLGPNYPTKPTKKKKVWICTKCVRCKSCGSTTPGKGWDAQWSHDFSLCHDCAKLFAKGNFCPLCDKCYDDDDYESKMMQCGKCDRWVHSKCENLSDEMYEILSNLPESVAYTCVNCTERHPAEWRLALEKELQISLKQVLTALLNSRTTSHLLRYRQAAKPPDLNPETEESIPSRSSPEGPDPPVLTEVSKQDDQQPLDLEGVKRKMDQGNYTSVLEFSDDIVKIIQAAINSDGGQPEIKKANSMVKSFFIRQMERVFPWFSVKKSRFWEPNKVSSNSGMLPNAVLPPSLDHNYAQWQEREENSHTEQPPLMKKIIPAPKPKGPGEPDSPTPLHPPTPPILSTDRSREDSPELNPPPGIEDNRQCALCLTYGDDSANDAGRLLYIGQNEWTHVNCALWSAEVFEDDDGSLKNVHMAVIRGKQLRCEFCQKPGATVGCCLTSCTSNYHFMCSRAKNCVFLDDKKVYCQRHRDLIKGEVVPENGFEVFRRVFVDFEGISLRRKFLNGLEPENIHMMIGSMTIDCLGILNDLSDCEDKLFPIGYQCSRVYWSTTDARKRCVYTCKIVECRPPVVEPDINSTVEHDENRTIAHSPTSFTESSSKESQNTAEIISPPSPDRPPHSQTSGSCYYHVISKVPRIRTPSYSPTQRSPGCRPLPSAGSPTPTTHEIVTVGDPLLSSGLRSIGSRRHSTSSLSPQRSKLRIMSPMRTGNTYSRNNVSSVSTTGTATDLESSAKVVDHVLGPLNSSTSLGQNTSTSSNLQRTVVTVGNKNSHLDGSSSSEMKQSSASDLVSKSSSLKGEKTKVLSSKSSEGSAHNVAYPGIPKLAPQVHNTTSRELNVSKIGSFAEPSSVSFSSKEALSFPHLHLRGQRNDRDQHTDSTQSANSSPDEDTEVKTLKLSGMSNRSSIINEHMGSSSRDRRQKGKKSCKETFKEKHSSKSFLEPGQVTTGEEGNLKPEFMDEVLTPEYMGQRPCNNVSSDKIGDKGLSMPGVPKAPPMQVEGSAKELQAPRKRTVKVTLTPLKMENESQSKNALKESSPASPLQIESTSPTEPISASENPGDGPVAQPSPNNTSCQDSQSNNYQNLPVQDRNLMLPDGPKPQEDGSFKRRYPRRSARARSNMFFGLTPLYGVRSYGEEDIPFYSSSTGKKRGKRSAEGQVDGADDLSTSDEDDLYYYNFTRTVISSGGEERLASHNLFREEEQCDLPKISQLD
T2 sequence (Q03164 2719-3969 partner limits assumed, one chain of several): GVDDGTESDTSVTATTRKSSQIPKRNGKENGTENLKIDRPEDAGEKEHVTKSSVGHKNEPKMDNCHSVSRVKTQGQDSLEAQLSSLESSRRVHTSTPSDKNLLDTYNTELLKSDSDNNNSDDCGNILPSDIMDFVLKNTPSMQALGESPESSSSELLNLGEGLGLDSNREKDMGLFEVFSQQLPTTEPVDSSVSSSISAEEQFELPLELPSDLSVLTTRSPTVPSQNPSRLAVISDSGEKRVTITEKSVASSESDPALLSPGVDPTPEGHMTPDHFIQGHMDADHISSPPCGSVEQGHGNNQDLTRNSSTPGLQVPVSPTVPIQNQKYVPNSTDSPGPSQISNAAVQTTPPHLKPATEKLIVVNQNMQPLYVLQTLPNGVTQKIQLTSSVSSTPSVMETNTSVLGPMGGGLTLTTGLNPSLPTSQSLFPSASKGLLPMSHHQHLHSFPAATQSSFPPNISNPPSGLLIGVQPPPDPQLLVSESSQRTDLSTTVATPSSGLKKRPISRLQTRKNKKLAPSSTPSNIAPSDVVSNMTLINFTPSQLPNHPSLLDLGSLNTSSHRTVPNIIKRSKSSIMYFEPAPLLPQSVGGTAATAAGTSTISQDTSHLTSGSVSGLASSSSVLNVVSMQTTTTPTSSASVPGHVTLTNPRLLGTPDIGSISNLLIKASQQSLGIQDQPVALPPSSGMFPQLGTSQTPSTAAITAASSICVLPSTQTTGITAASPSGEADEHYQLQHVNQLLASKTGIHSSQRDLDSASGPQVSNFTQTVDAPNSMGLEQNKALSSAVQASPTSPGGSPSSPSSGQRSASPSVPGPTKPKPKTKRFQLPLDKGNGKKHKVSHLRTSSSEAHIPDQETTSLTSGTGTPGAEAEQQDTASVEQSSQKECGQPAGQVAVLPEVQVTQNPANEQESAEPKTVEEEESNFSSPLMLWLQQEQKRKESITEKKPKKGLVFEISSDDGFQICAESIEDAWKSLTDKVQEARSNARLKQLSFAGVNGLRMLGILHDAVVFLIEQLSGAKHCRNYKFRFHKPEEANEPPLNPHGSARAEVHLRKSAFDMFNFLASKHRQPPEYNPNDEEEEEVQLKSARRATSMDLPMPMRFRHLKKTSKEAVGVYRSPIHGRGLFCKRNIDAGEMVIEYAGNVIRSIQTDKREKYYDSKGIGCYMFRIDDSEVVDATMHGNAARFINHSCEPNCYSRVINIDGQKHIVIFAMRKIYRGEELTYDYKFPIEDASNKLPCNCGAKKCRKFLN

[30] = target: T2, Menin/Histone-lysine N-methyltransferase MLL; assay: Inhibition of human menin-MLL (unknown origin) protein-protein interaction by fluorescence polarization assay

With `CN1CCN(c2ncnc3c2ccn3C2CCN(CC3CN(c4ccc(C#N)cc4)C3)CC2)CC1` the IC50 (Menin) was greater than 10000 nM, the IC50 (HL-60) was greater than 10000 nM and the IC50 (MV4-11 [1]) was greater than 10000 nM.

Molecule `N#Cc1ccc(N2CC(CN3CCC(n4cc(-c5ccc(F)cc5)c5c(N)ncnc54)CC3)C2)cc1` has an IC50 (Menin) of 380 nM, an IC50 (HL-60) greater than 10000 nM and an IC50 (SU-DHL-6) of 6870 nM. For the same molecule, the IC50 (Pfeiffer) was greater than 10000 nM, the IC50 (Raji) was greater than 10000 nM and the IC50 (Ramos) was greater than 10000 nM. It also gave an IC50 (HCT-116) greater than 10000 nM, an IC50 (MCF7) greater than 10000 nM and an IC50 at 72 h [2] greater than 10000 nM. The viability at 1 µM (MV4-11 [3]) was 91%, the Activity (MV4-11 [4]) was 4.53% and the Activity (MV4-11 [5]) was 4.23%. The Activity (MV4-11 [6]) was 0.14%, the viability at 10 µM (MV4-11 [7]) was 55.8% and the Activity (MV4-11 [8]) was 8.52%. For the same molecule, the Activity (MV4-11 [9]) was 34.56%, the Activity (MV4-11 [10]) was 1.09% and the viability at 0.1 µM (MV4-11 [11]) was 93.9%. The Activity (MV4-11 [12]) was 3.34%, the Activity (MV4-11 [13]) was 2.75% and the Activity (MV4-11 [14]) was 0.05%. The Activity (MV4-11 [15]) was “Dose-Dependent Effect”, the Activity (MV4-11 [16]) was “Dose-Dependent Effect” and the Activity (MV4-11 [17]) was “Tde”. The Activity (MV4-11 [18]) was “Dose-Dependent Effect”, the Activity (MV4-11 [19]) was “Tde” and the Activity (MV4-11 [20]) was 68.53%. It also gave an Activity (MV4-11 [21]) of 31.47%, an Activity (MV4-11 [22]) of 30.31% and an Activity (MV4-11 [23]) of 69.67%. The Activity (MV4-11 [24]) was 85.59%, the Activity (MV4-11 [25]) was 14.39% and the IC50 (MV4-11 [1]) was 1070 nM.

Molecule `Nc1ncnc2c1c(-c1ccc(F)cc1)cn2C1CCN(CC2CN(c3ccc(S(=O)(=O)c4ccncc4)cc3)C2)CC1` has an IC50 (Menin) of 1220 nM, an IC50 (HL-60) greater than 10000 nM and an IC50 (MV4-11 [1]) greater than 10000 nM.

`CCCc1cc2c(N3CCN(C4=NCC(C)(C)S4)CC3)ncnc2s1` showed an IC50 (HL-60) greater than 10000 nM, a viability at 1 µM (MV4-11 [3]) of 93.8% and an Activity (MV4-11 [4]) of 3.12%. The Activity (MV4-11 [5]) was 3.02%, the Activity (MV4-11 [6]) was 0.09% and the viability at 10 µM (MV4-11 [7]) was 68%. For the same molecule, the Activity (MV4-11 [8]) was 13.22%, the Activity (MV4-11 [9]) was 18.52% and the Activity (MV4-11 [10]) was 0.19%. For the same molecule, the Activity (MV4-11 [26]) was “Active”, the Activity (MV4-11 [16]) was “Dose-Dependent Effect” and the Activity (MV4-11 [27]) was “Tde”. The Activity (MV4-11 [18]) was “Dose-Dependent Effect”, the Activity (MV4-11 [28]) was “Tde” and the Activity (MV4-11 [20]) was 79%. The Activity (MV4-11 [21]) was 21%, the Activity (MV4-11 [22]) was 47.84% and the Activity (MV4-11 [23]) was 52.13%.

`N#Cc1ccc(N2CC(CN3CCC(n4ccc5c(N)ncnc54)CC3)C2)cc1` gave an IC50 (Menin) of 1470 nM, an IC50 (HL-60) greater than 10000 nM and an IC50 (MV4-11 [1]) of 5200 nM.

In the case of `Nc1ncnc2c1c(-c1ccc(F)cc1)cn2C1CCN(CC2CN(c3ccc(S(=O)(=O)C4CC4)cc3)C2)CC1`, the IC50 (Menin) is reported as 470 nM, the IC50 (HL-60) is reported as 7500 nM and the IC50 (MV4-11 [1]) is reported as 1260 nM.

`Cc1c(CN2CCC3(CC2)CN(c2ncnc4sc(CC(F)(F)F)cc24)C3)ccc2c1cc(C#N)n2CC(N)=O` gave an IC50 [29] of 8 nM.

For `CNc1nc(NC2CCN(Cc3ccc4c(cc(C#N)n4CC45CC(NC=O)(C4)C5)c3C)CC2)c2cc(CC(F)(F)F)sc2n1`, the IC50 [30] was 0.51 nM.

Work on `CCS(=O)(=O)c1ccc(N2CC(CN3CCC(n4cc(-c5ccc(F)cc5)c5c(N)ncnc54)CC3)C2)cc1` yielded an IC50 (Menin) of 450 nM, an IC50 (HL-60) greater than 10000 nM and an IC50 (MV4-11 [1]) of 1290 nM.

With `Nc1ncnc2c1c(-c1ccc(F)cc1)cn2C1CCN(CC2CN(c3ccc(S(=O)(=O)C4CCCC4)cc3)C2)CC1` the IC50 (Menin) was 1040 nM, the IC50 (HL-60) was greater than 10000 nM and the IC50 (MV4-11 [1]) was 1940 nM.
